Data from patent US20080027006A1 (priority 2004, published 2008).
≈ marks a conversion by molar mass, not a printed value.

Tests used:
[1] = pH 7
physchem = details: pH 7
[2] = type: physicochemical; details: pH 7

CC[C@H](C)[C@H](NC(=O)[C@H](CCC(N)=O)NC(=O)[C@H](CO)NC(=O)[C@@H](NC(=O)[C@H](C)NC(=O)[C@H](CCCCN)NC(=O)[C@H](CC(N)=O)NC(=O)[C@H](Cc1ccccc1)NC(=O)[C@H](CCC(N)=O)NC(=O)[C@H](CC(N)=O)NC(=O)[C@H](C)NC(=O)[C@@H](NC(=O)[C@H](CCC(N)=O)NC(=O)[C@H](CCCCN)NC(=O)[C@H](CCC(N)=O)NC(=O)[C@H](CC(N)=O)NC(=O)[C@H](CCC(=O)O)NC(=O)[C@H](Cc1ccc(O)cc1)NC(=O)[C@H](CC(C)C)NC(=O)[C@@H](NC(=O)[C@H](CC(N)=O)NC(=O)[C@H](CCC(N)=O)NC(=O)[C@@H](NC(=O)[C@@H](NC(=O)CNC(=O)[C@@H](NC(=O)CNC(=O)[C@H](CC(N)=O)NC(=O)[C@H](Cc1ccccc1)NC(=O)[C@H](CCCNC(=N)N)NC(=O)[C@H](Cc1ccc(O)cc1)NC(=O)[C@H](C)NC(=O)[C@H](CCSC)NC(=O)[C@H](CCC(N)=O)NC(=O)[C@H](CCSC)NC(C)=O)[C@@H](C)CC)C(C)C)[C@@H](C)O)C(C)C)[C@@H](C)CC)[C@@H](C)CC)C(N)=O [HR-N5]
solubility (in words) [1]: largely insoluble
solubility (physchem): 15 µM (≈ 61.5 µg/mL)
No. Helical Residues, 50% TFE [2]: 24
[θ]222, 50% TFE [2]: −24,200 degrees · cm^2 · dmol^−1
[θ]222, Benign [2]: −4,300 degrees · cm^2 · dmol^−1

CC[C@H](C)[C@H](NC(=O)CNC(=O)[C@H](CC(N)=O)NC(=O)[C@H](Cc1ccccc1)NC(C)=O)C(=O)NCC(=O)N[C@H](C(=O)N[C@H](C(=O)N[C@@H](CCC(N)=O)C(=O)N[C@@H](CC(N)=O)C(=O)N[C@H](C(=O)N[C@@H](CC(C)C)C(=O)N[C@@H](Cc1ccc(O)cc1)C(=O)N[C@@H](CCC(=O)O)C(=O)N[C@@H](CC(N)=O)C(=O)N[C@@H](CCC(N)=O)C(=O)N[C@@H](CCCCN)C(=O)N[C@@H](CCC(N)=O)C(=O)N[C@H](C(=O)N[C@@H](C)C(=O)N[C@@H](CC(N)=O)C(=O)N[C@@H](CCC(N)=O)C(=O)N[C@@H](Cc1ccccc1)C(=O)N[C@@H](CC(N)=O)C(=O)N[C@@H](CCCCN)C(=O)N[C@@H](C)C(=O)N[C@H](C(=O)N[C@@H](CO)C(=O)N[C@@H](CCC(N)=O)C(=O)N[C@H](C(=O)N[C@@H](CCC(N)=O)C(=O)N[C@@H](CCC(=O)O)C(=O)N[C@@H](CO)C(=O)N[C@@H](CC(C)C)C(=O)N[C@H](C(=O)N[C@H](C(N)=O)[C@@H](C)O)[C@@H](C)O)[C@@H](C)CC)[C@@H](C)CC)[C@@H](C)CC)C(C)C)[C@@H](C)O)C(C)C [HR-N6]
[θ]222, Benign [2]: −3,300 degrees · cm^2 · dmol^−1

CC[C@H](C)[C@H](NC(=O)[C@H](C)NC(=O)[C@H](CCCCN)NC(=O)[C@H](CC(N)=O)NC(=O)[C@H](Cc1ccccc1)NC(=O)[C@H](CCC(N)=O)NC(=O)[C@H](CC(N)=O)NC(=O)[C@H](C)NC(=O)[C@@H](NC(=O)[C@H](CCC(N)=O)NC(=O)[C@H](CCCCN)NC(=O)[C@H](CCC(N)=O)NC(=O)[C@H](CC(N)=O)NC(=O)[C@H](CCC(=O)O)NC(=O)[C@H](Cc1ccc(O)cc1)NC(=O)[C@H](CC(C)C)NC(=O)[C@@H](NC(=O)[C@H](CC(N)=O)NC(=O)[C@H](CCC(N)=O)NC(C)=O)C(C)C)[C@@H](C)CC)C(=O)N[C@@H](CO)C(=O)N[C@@H](CCC(N)=O)C(=O)N[C@H](C(=O)N[C@@H](CCC(N)=O)C(=O)N[C@@H](CCC(=O)O)C(=O)N[C@@H](CO)C(=O)N[C@@H](CC(C)C)C(=O)N[C@H](C(=O)N[C@H](C(=O)N[C@H](C(=O)N[C@@H](CO)C(=O)N[C@H](C(=O)N[C@@H](C)C(=O)N[C@@H](CC(C)C)C(=O)NCC(=O)N[C@@H](CCCCN)C(N)=O)[C@@H](C)O)[C@@H](C)O)[C@@H](C)O)[C@@H](C)O)[C@@H](C)CC [HR-N7]
[θ]222, Benign [2]: −2,800 degrees · cm^2 · dmol^−1

CC[C@H](C)[C@H](NC(=O)[C@H](C)NC(=O)[C@H](CCCCN)NC(=O)[C@H](CC(N)=O)NC(=O)[C@H](Cc1ccccc1)NC(=O)[C@H](CCC(N)=O)NC(=O)[C@H](CC(N)=O)NC(=O)[C@H](C)NC(=O)[C@@H](NC(=O)[C@H](CCC(N)=O)NC(=O)[C@H](CCCCN)NC(=O)[C@H](CCC(N)=O)NC(C)=O)[C@@H](C)CC)C(=O)N[C@@H](CO)C(=O)N[C@@H](CCC(N)=O)C(=O)N[C@H](C(=O)N[C@@H](CCC(N)=O)C(=O)N[C@@H](CCC(=O)O)C(=O)N[C@@H](CO)C(=O)N[C@@H](CC(C)C)C(=O)N[C@H](C(=O)N[C@H](C(=O)N[C@H](C(=O)N[C@@H](CO)C(=O)N[C@H](C(=O)N[C@@H](C)C(=O)N[C@@H](CC(C)C)C(=O)NCC(=O)N[C@@H](CCCCN)C(=O)N[C@@H](CC(C)C)C(=O)N[C@@H](CCC(N)=O)C(=O)N[C@@H](CC(=O)O)C(=O)N[C@H](C(=O)N[C@H](C(=O)N[C@@H](CC(N)=O)C(=O)N[C@@H](CCC(N)=O)C(N)=O)C(C)C)C(C)C)[C@@H](C)O)[C@@H](C)O)[C@@H](C)O)[C@@H](C)O)[C@@H](C)CC [HR-N8]
[θ]222, Benign [2]: −2,500 degrees · cm^2 · dmol^−1

CC[C@H](C)[C@H](NC(=O)[C@H](C)NC(=O)[C@H](CCCCN)NC(=O)[C@H](CC(N)=O)NC(=O)[C@H](Cc1ccccc1)NC(C)=O)C(=O)N[C@@H](CO)C(=O)N[C@@H](CCC(N)=O)C(=O)N[C@H](C(=O)N[C@@H](CCC(N)=O)C(=O)N[C@@H](CCC(=O)O)C(=O)N[C@@H](CO)C(=O)N[C@@H](CC(C)C)C(=O)N[C@H](C(=O)N[C@H](C(=O)N[C@H](C(=O)N[C@@H](CO)C(=O)N[C@H](C(=O)N[C@@H](C)C(=O)N[C@@H](CC(C)C)C(=O)NCC(=O)N[C@@H](CCCCN)C(=O)N[C@@H](CC(C)C)C(=O)N[C@@H](CCC(N)=O)C(=O)N[C@@H](CC(=O)O)C(=O)N[C@H](C(=O)N[C@H](C(=O)N[C@@H](CC(N)=O)C(=O)N[C@@H](CCC(N)=O)C(=O)N[C@@H](CC(N)=O)C(=O)N[C@@H](C)C(=O)N[C@@H](CCC(N)=O)C(=O)N[C@@H](C)C(=O)N[C@@H](CC(C)C)C(=O)N[C@@H](CC(N)=O)C(=O)N[C@H](C(N)=O)[C@@H](C)O)C(C)C)C(C)C)[C@@H](C)O)[C@@H](C)O)[C@@H](C)O)[C@@H](C)O)[C@@H](C)CC [HR-N9]
[θ]222, Benign [2]: −2,800 degrees · cm^2 · dmol^−1

CC[C@H](C)[C@H](NC(C)=O)C(=O)N[C@@H](CCC(N)=O)C(=O)N[C@@H](CCC(=O)O)C(=O)N[C@@H](CO)C(=O)N[C@@H](CC(C)C)C(=O)N[C@H](C(=O)N[C@H](C(=O)N[C@H](C(=O)N[C@@H](CO)C(=O)N[C@H](C(=O)N[C@@H](C)C(=O)N[C@@H](CC(C)C)C(=O)NCC(=O)N[C@@H](CCCCN)C(=O)N[C@@H](CC(C)C)C(=O)N[C@@H](CCC(N)=O)C(=O)N[C@@H](CC(=O)O)C(=O)N[C@H](C(=O)N[C@H](C(=O)N[C@@H](CC(N)=O)C(=O)N[C@@H](CCC(N)=O)C(=O)N[C@@H](CC(N)=O)C(=O)N[C@@H](C)C(=O)N[C@@H](CCC(N)=O)C(=O)N[C@@H](C)C(=O)N[C@@H](CC(C)C)C(=O)N[C@@H](CC(N)=O)C(=O)N[C@H](C(=O)N[C@@H](CC(C)C)C(=O)N[C@H](C(=O)N[C@@H](CCCCN)C(=O)N[C@@H](CCC(N)=O)C(=O)N[C@@H](CC(C)C)C(=O)N[C@@H](CO)C(=O)N[C@@H](CO)C(N)=O)C(C)C)[C@@H](C)O)C(C)C)C(C)C)[C@@H](C)O)[C@@H](C)O)[C@@H](C)O)[C@@H](C)O [HR-N10]
[θ]222, Benign [2]: −3,600 degrees · cm^2 · dmol^−1

CC[C@H](C)[C@H](NC(=O)[C@H](C)NC(=O)CNC(=O)[C@H](Cc1ccccc1)NC(=O)[C@H](CC(N)=O)NC(=O)[C@H](CO)NC(=O)[C@H](CO)NC(=O)[C@H](CC(C)C)NC(=O)[C@H](CCC(N)=O)NC(=O)[C@H](CCCCN)NC(=O)[C@@H](NC(=O)[C@H](CC(C)C)NC(=O)[C@@H](NC(=O)[C@H](CC(N)=O)NC(=O)[C@H](CC(C)C)NC(=O)[C@H](C)NC(=O)[C@H](CCC(N)=O)NC(=O)[C@H](C)NC(=O)[C@H](CC(N)=O)NC(=O)[C@H](CCC(N)=O)NC(=O)[C@H](CC(N)=O)NC(=O)[C@@H](NC(=O)[C@@H](NC(=O)[C@H](CC(=O)O)NC(=O)[C@H](CCC(N)=O)NC(=O)[C@H](CC(C)C)NC(=O)[C@H](CCCCN)NC(=O)CNC(=O)[C@H](CC(C)C)NC(=O)[C@H](C)NC(=O)[C@@H](NC(=O)[C@H](CO)NC(=O)[C@@H](NC(C)=O)[C@@H](C)O)[C@@H](C)O)C(C)C)C(C)C)[C@@H](C)O)C(C)C)C(=O)N[C@@H](CO)C(=O)N[C@@H](CO)C(N)=O [HR-N11]
[θ]222, Benign [2]: −3,200 degrees · cm^2 · dmol^−1
